Source: patent US11534412B2, “Application of totarol and pharmaceutical composition containing totarol” (Emergopharm SP. Z O.O. SP.K., priority 2017, dated 2022)

Columns and labels:
[1] = test system: human vaginal epithelial cells of the A-431 cell line; assay type: cell-based
Protocol: Test of totarol impact on the human vaginal epithelial cells of the A-431 cell line (ATCC® The study was carried out using the following test: Annexin-V-Fluos (Roche, Mannheim, Germany), during incubation for 2, 8 and 24 hours, under in vitro conditions, according to the instructions of the test's manufacturer. The totarol sample was prepared by dissolution of 3 mg of totarol in 3 ml of 100% DMI.
The cultivation time for the A-431 cell line was 20 days. The culture was carried out at a temperature of 37° C. in an atmosphere containing 10% CO2, on a DMEM culture medium (Institute of Immunology and Experimental Therapy PAS [IITD PAN], Wroclaw), with an addition of 10% of foetal bovine serum (FBS, Sigma-Aldrich). The culture fluid were being replaced regularly every 48 hours. After achieving a decantable growth or the so-called “monolayer”, the cells were passaged using (for approx. 10 min) 0.25% trypsin (Sigma-Aldrich). Then, the obtained tissue line was passed to 24-well plates (TPP), adjusting their densities to the value of 5×10^5 per well. The tissue culture of the studied lines was carried out for 3 next days on the surface of sterile microscope slides placed on the bottom of a 24-well plate, until a decantable growth was obtained on the surface of the microscope slides. After obtaining the so-called “monolayer”, the cells were washed with PBS without Ca^2+ and Mg^2+ ions (IITD PAN, Wroclaw), and poured with 700 µl of fresh DMEM medium with 10% FBS, together with 300 μl of properly prepared totarol. • Negative control: 1000 μl of fresh DMEM medium with 10% FBS. • Solvent control: 700 μl of fresh DMEM medium with 10% FBS+300 μl of DMI solvent. • Necrosis positive control: 900 μl of fresh DMEM medium with 10% FBS+100 μl H2O2 (30%). The proper examination using the Annexin-V-Fluos test causes green staining of apoptotic cells. […] This dye has an ability to penetrate the cell's interior freely only through a damaged cellular membrane, staining the interior red. In the case of a lack of damages of the cellular membrane, propidium iodide remains on its surface, forming a characteristic red “halo” around the cell. After a corresponding study time, i.e. 2, 8, and 24 hours, the culture fluid was removed, the content was washed with PBS (pre-heated to a temperature of 37° C.) twice. Then, 100 μl of the fluorescent stains mixture including in the Annexin-V-Fluos (Roche) kit were applied on the surface of each microscope slide (placed in a culture well) and additionally, Hoechst stain was used (cellular DNA staining). The staining procedure was carried out according to the manufacturer's recommendations. The culture together with the stains applied onto it were incubated at room temperature for 20 min. The intensity of light emitted by the cells stained with the individual stains was observed using a fluorescent microscope at the wavelength of 494-520 nm, using 400× magnification. The cells were counted in five visual fields, and the results were averaged. The reliability of the tests carried out is confirmed by hydrogen peroxide used as a positive control, causing a distinct necrosis process already after 2 hours of incubation. Data analyses were carried out on the basis of the average number of cells from five visual fields in the individual times (2, 8, and 24 h). The results are presented in Table 6 and in the form of photographic documentation—FIGS. 1, 2, 3, 4.

Gardnerella vaginalis = settings: cited from earlier work

Row | SMILES | Alive cells [1] | Apopt. cells [1] | Necrot. Cells [1] | Necrot. cells [1] | apoptosis and necrosis in epithelial cells, photographic documentation [1] | metronidazole-resistant strain percentage (Gardnerella vaginalis; Goldstein et al., 1993) [%] | percentage of resistant strains (Gardnerella vaginalis; Goldstein et al., 2002) [%] | studied strains characterised by resistance to metronidazole (Gardnerella vaginalis; Poland, 67 strains isolated from 604 females (46 out of 67)) [%] | resistance of Gardnerella vaginalis strains to metronidazole (Gardnerella vaginalis; studies published in 2007) [%]
1 | OO [Necrosis positive control, reference compound] | 0 | 0 | 100 | 100 | Necrotic cells | – | – | – | –
2 | Cc1ncc([N+](=O)[O-])n1CCO [metronidazole] | – | – | – | – | – | 20 | 29 | 68.7 | 70
